Measured values as given in PubChem BioAssay AID1996.
In brackets after ≈: the same amount, converted by molar mass. Residues, ends and D or L forms follow the SMILES beside them. *: point of attachment. OBn = c1ccc(CO*)cc1

conditions: buffer; pH 7.4; 200.0 µM

SMILES	solubility kinetic
Cc1ccc(NC(=O)C(C)C(=O)Nc2ccc(C)cc2)cc1	1.5 µg/mL (≈ 5.06 µM)
Cc1ccc(C(=O)N(C)Cc2nc3ccccc3c(=O)[nH]2)cc1NC(=O)c1ccco1	> 62.5 µg/mL
CCOC(=O)c1ccccc1NC(=O)CSc1nncn1C	> 48.1 µg/mL
COC(=O)c1ccc(S(=O)(=O)NCc2ccccn2)n1C	39.6 µg/mL (≈ 128 µM)
O=c1[nH]c(Cc2cccc(C(F)(F)F)c2)nc2ccccc12	< 0.3 µg/mL
CCN(CC)CC#CC(O)(c1ccccc1)c1ccccc1	> 44 µg/mL
Cc1cccc(N=C2NC(=O)/C(=C/c3cccnc3)S2)c1	2.7 µg/mL (≈ 9.14 µM)
CC(C)N1C(=O)CCC1C(=O)NCc1ccco1 (centres undefined)	29.2 µg/mL (≈ 117 µM)
Cc1ccc(NC(=O)CS(=O)c2ccccc2N)c(C)c1 (centres undefined)	> 45.4 µg/mL
CCCC1=C(C(=O)OCC)C(c2ccco2)C(C#N)=C(N)O1 (centres undefined)	30.3 µg/mL (≈ 100 µM)
CN(C)C(=S)c1ccc(N(C)C)cc1	28.2 µg/mL (≈ 135 µM)
O=C(NN1C(=O)NC2(CCCCC2)C1=O)c1cccs1	> 44 µg/mL
COc1ccc(NC(=O)c2sccc2-n2cccc2)cc1	3.4 µg/mL (≈ 11.4 µM)
CCCCN1C(=O)C(=O)N(CC(=O)c2ccc[nH]2)C1=O	> 41.6 µg/mL
CC(=O)c1cccc(NC(=O)c2ccc(OC3CSC3)cc2)c1	< 0.7 µg/mL
NC(=O)c1cccnc1OCC(F)(F)F	> 33 µg/mL
O=c1[nH]c(SCc2c(Cl)cccc2Cl)nc2ccccc12	< 0.4 µg/mL
CC(OC(=O)Cc1c[nH]c2ccccc12)C(=O)NC1(C#N)CCCCC1 (centres undefined)	> 53 µg/mL
COc1cccc(NC(=O)COC(=O)c2ccc3ccccc3n2)c1	43.4 µg/mL (≈ 129 µM)
CSc1nc(N)nc(C(C)C)n1	> 27.6 µg/mL
CCc1ccc(NS(=O)(=O)c2ccc3c(c2)oc(=O)n3C)cc1	2.1 µg/mL (≈ 6.32 µM)
CCn1c(Oc2ccccc2)nc2c1c(=O)n(C)c(=O)n2C	37.8 µg/mL (≈ 126 µM)
Oc1ccc(-c2csc(Nc3ncccn3)n2)cc1	1 µg/mL (≈ 3.7 µM)
c1ccc(CNc2nc(-c3cccnc3)cs2)cc1	22.4 µg/mL (≈ 83.8 µM)

SMILES	solubility kinetic
Cc1ccc(OCCn2c(C)nc3ccccc32)cc1	9.6 µg/mL (≈ 36 µM)
O=C(c1ccccc1F)N1CCCC(C(=O)N2CCc3ccccc3C2)C1 (centres undefined)	51.3 µg/mL (≈ 140 µM)
O=C(NCc1ccccc1)C1CC(=O)N(C2CCCCC2)C1 (centres undefined)	> 45.1 µg/mL
CC(Sc1ccc([N+](=O)[O-])cn1)C(=O)Nc1nccs1 (centres undefined)	5 µg/mL (≈ 16.1 µM)
Cc1cccc(NC(=O)NC2CCCc3ccccc32)c1 (centres undefined)	0.7 µg/mL (≈ 2.5 µM)
Cc1ccc(Cl)c(OCC(=O)Nc2cccnc2)c1	15.6 µg/mL (≈ 56.4 µM)
CC1(C)Cc2cccc(C(=O)Nc3ccc(Cl)cc3)c2O1	2.4 µg/mL (≈ 7.95 µM)
CCc1noc(C)c1C(=O)N(CCOC)c1c(N)n(CC(C)C)c(=O)[nH]c1=O	55.6 µg/mL (≈ 141 µM)
O=C1NCCN/C1=C\C(=O)c1ccc(F)cc1	32.5 µg/mL (≈ 139 µM)
CC(=O)c1cccc(NC(=O)CN2C(=O)c3ccccc3C2=O)c1	13.9 µg/mL (≈ 43.1 µM)
COc1ccc(CCNC(=O)CCc2cn(C)c3ccccc23)c(OC)c1	16.9 µg/mL (≈ 46.1 µM)
Cc1cc2oc(=O)cc(CN3CCCCC3C)c2cc1Cl (centres undefined)	4.5 µg/mL (≈ 14.7 µM)
CCOC(=O)C1=C(O)C(=O)N(c2ccccc2)C1c1cccc([N+](=O)[O-])c1 (centres undefined)	52 µg/mL (≈ 141 µM)
CCOc1ccc(C(=S)N2CCCC2)c(OCC)c1	> 41.9 µg/mL
CCNc1c(NCC)c(=O)c1=O	23.2 µg/mL (≈ 138 µM)
CSc1ncccc1C(=O)N(C)CC(=O)Nc1cccc(F)c1	> 50 µg/mL
Cn1c(N)c(C(=O)CSc2nnc3n2CCCCC3)c(=O)n(C)c1=O	> 54.7 µg/mL
O=C1COc2ccc(S(=O)(=O)N3CCCC3)cc2N1	> 42.3 µg/mL
CC1CCCC(NC(=O)c2ccc3c(c2)OCO3)C1C (centres undefined)	> 41.3 µg/mL
COC(=O)c1sccc1NC(=O)CSCCc1ccccn1	> 50.5 µg/mL
Cc1ccc(Nc2nc(N)c3ccccc3n2)cc1Cl.Cl	22.1 µg/mL
Cc1ccc(C)c(NC(=O)CCC(=O)N/N=C/c2cccnc2)c1	> 48.7 µg/mL
O=C(CCC(=O)c1ccccc1)Nc1ccccc1	22.5 µg/mL (≈ 88.8 µM)
CCOc1ccccc1NC(=O)Nc1ccc2c(c1)CCC2	< 0.3 µg/mL

SMILES	solubility kinetic
COc1ccc(/C=C/C(=O)N2CCN(c3ccccn3)CC2)cc1	13.9 µg/mL (≈ 43 µM)
COc1ccccc1N1CCN(C(=O)c2c(C)noc2C)CC1	> 47.3 µg/mL
COc1ccc(S(=O)(=O)n2cnc3ccccc32)cc1.Cl	> 48.7 µg/mL
CCc1nc2ccc(C(=O)N3CCN(CC)CC3)cc2nc1CC	48.6 µg/mL (≈ 149 µM)
C=CCC(C(=O)OC)(C(=O)OC)c1ccccc1[N+](=O)[O-]	> 44 µg/mL
C/C(CC(=O)Nc1ccccn1)=N\NC(=O)c1cnccn1	> 44.7 µg/mL
Cc1cccc(-n2c(C)c(-c3ccccc3)[nH]c2=S)c1	4.5 µg/mL (≈ 16 µM)
S=c1[nH]ccn1CCc1ccccc1	22.7 µg/mL (≈ 111 µM)
O=C(CSc1nc(C2CC2)nc2ccccc12)Nc1cccc(O)c1	< 0.3 µg/mL
O=C(O)Cn1cc(/C=N/Nc2ccc([N+](=O)[O-])cn2)c2ccccc21	> 50.9 µg/mL
Cc1cc(C)c(C(=O)Nc2cccc(F)c2)c(Cl)n1	> 41.8 µg/mL
O=C(O)CCC(=O)N(Cc1ccco1)C1CC(=O)N(c2ccccc2)C1=O (centres undefined)	> 55.6 µg/mL
Cc1ccc2nc(SCC(=O)NC3CC3)[nH]c2c1	> 39.2 µg/mL
Cc1noc(C)c1COC(=O)c1csc2c1CCCC2	8.3 µg/mL (≈ 28.5 µM)
Cl.NCCSC1CC(=O)N(Cc2ccc(F)cc2)C1=O (centres undefined)	37.9 µg/mL
O=[N+]([O-])c1ccccc1CNC1CCCc2ccccc21 (centres undefined)	20.8 µg/mL (≈ 73.7 µM)
Cc1csc2c(NCCCN3CCOCC3)ncnc12	> 43.9 µg/mL
CC1(N(O)C=C2C=CC(=O)C=C2)CCCCC1=O (centres undefined)	> 37.1 µg/mL
Cc1onc(-c2c(F)cccc2Cl)c1C(=O)N=C(N)N1CCCC1	5 µg/mL (≈ 14.3 µM)
CC(C)(C)NC(=O)COC(=O)c1ccc(Cl)nc1	36.4 µg/mL (≈ 134 µM)
C=CCN=C1S/C(=C/c2ccc([N+](=O)[O-])cc2)C(=O)N1CC=C	< 0.2 µg/mL
O=C(c1ccccc1)c1ccc(OCC(=O)N2CCOCC2)cc1	> 48.8 µg/mL
O=[N+]([O-])c1ccc(-c2ccc(S(=O)(=O)N3CCOCC3)cc2)cc1	< 0.4 µg/mL
COc1ccc(C(CNC(=O)c2cc(C)on2)N(C)C)cc1 (centres undefined)	45.3 µg/mL (≈ 149 µM)

SMILES	solubility kinetic
Cc1ccccc1C(=O)NC1CCN(C(=O)Nc2ccc(F)cc2)CC1	21.5 µg/mL (≈ 60.5 µM)
COc1cccc(C(=O)Nc2ccccc2N2CCN(C(=O)c3ccccc3)CC2)c1	15 µg/mL (≈ 36.1 µM)
CC(=O)Nc1ccc(S(=O)(=O)NCc2ccncc2)cc1	> 45.8 µg/mL
Cc1ccc(OCCCC(=O)NCc2ccco2)c(C)c1	> 43.1 µg/mL
O=C(Nc1ccc(S(=O)(=O)Nc2ccccn2)cc1)C(F)(F)F	> 51.8 µg/mL
CC(C)(C)c1ccc(C(=O)NCc2ccccc2)cc1	< 0.6 µg/mL
C=CCNc1nc(C(=O)OCC(=O)c2ccc(F)cc2)cs1	11.2 µg/mL (≈ 35 µM)
O=C(OCc1cc(=O)n2ccsc2n1)c1ccccc1NCCO	> 51.8 µg/mL
CNS(=O)(=O)c1cccc(C(=O)OC2CCOC2=O)c1 (centres undefined)	> 44.9 µg/mL
COCCNC(=O)NC(=O)CSc1nc(C)c(C)c(C)n1	> 46.9 µg/mL
O=C(O)c1ccc2c(c1)SC1=NS(=O)(=O)CCN12	> 42.6 µg/mL
Cc1ccccc1CN(C)C(=O)c1ccc2ccccc2n1	> 43.6 µg/mL
CN1CCN(S(=O)(=O)c2ccc(NC(=O)c3ccc([N+](=O)[O-])cc3)cc2)CC1	4.9 µg/mL (≈ 12.1 µM)
Cl.Clc1cccc(N2CCNCC2)c1	> 35 µg/mL
COc1ccc(Nc2ncnc3sc(-c4ccccc4)cc23)c(OC)c1	0.6 µg/mL (≈ 1.65 µM)
Cc1ccc(S(=O)(=O)NC(=O)Nc2cccc(S(=O)(=O)N(C)C)c2)cc1	> 59.6 µg/mL
CCOC(=O)c1cc2c(n(-c3ccc(Cl)cc3)c1=O)CCCC2=O	> 51.9 µg/mL
Cc1cccc(CCNCc2cc3cccc(C)c3[nH]c2=O)c1	45.9 µg/mL (≈ 150 µM)
COc1ccc(OC)c(NC(=O)COC(=O)CCc2nc3ccccc3c(=O)[nH]2)c1	> 61.7 µg/mL
CC1CCN(c2ccc(C=O)o2)CC1	> 29 µg/mL
O=C(NCc1ccncc1)c1cc(F)c(F)cc1Cl	> 42.4 µg/mL
O=[N+]([O-])c1ccc(-n2cnc3ccccc32)c([N+](=O)[O-])c1	> 42.6 µg/mL
O=C(CSc1cccc[n+]1[O-])NCCCc1ccccc1	> 45.4 µg/mL
O=C(NCc1ccccc1)C(=O)Nc1nccs1	3.1 µg/mL (≈ 11.9 µM)

SMILES	solubility kinetic
CC(=O)NCC(=O)N[C@@H](CC(=O)OCc1ccccc1)C(=O)OCc1ccccc1 (Ac-Gly-Asp(OBn)-OBn)	> 61.9 µg/mL
CNCCc1ccc(O)c(O)c1.Cl	17.2 µg/mL
c1ccc(Nc2ccnc(Nc3ccccc3)n2)cc1	6.7 µg/mL (≈ 25.5 µM)
Cc1cc(NC(=O)NC(=O)c2ccccc2)no1	2.8 µg/mL (≈ 11.4 µM)
Cc1ccc2nc(C)c(C(=O)O)cc2c1	> 30.2 µg/mL
N/C(=N\OC(=O)c1ccc2c(c1)OCO2)c1ccncc1	> 42.8 µg/mL
CC(=O)NS(=O)(=O)c1ccc(NC(=O)c2cccc3ccccc23)cc1	53.9 µg/mL (≈ 146 µM)
CN(C)c1ccc(C2N(C)C(=O)c3ccccc3N2C)cc1 (centres undefined)	40.9 µg/mL (≈ 138 µM)
O=C1CSC(c2ccc(F)c(F)c2)N1c1ccccc1F (centres undefined)	38.3 µg/mL (≈ 124 µM)
O=C(OCC(=O)N1CCCC1)c1cc(Cl)ccc1[N+](=O)[O-]	> 46.9 µg/mL
Cc1cccc(-c2cc(C(=O)Nc3ccncc3)c3ccccc3n2)c1	0.8 µg/mL (≈ 2.36 µM)
CCOc1ccc(/C=C/C(=O)NC2CCCCC2)cc1	< 0.6 µg/mL
CCOc1ccc(C(C)=O)cc1CN1C(=O)C(=O)N(CC)C1=O	41.5 µg/mL (≈ 130 µM)
Cc1ccc(C(=O)NC(=S)NCc2ccccc2)cc1Br	0.4 µg/mL (≈ 1.1 µM)
O=C(c1cc2cc(F)ccc2[nH]1)N1CCC(Cc2ccccc2)CC1	1.3 µg/mL (≈ 3.86 µM)
O=C(COC(=O)Cc1ccsc1)Nc1ccc(Cl)cc1F	47.7 µg/mL (≈ 146 µM)
COCCCNC(=S)Nc1cc2oc3ccccc3c2cc1OC	3.9 µg/mL (≈ 11.3 µM)
COc1ccccc1OCCNC(=O)C(=O)c1c[nH]c2ccccc12	37.2 µg/mL (≈ 110 µM)
COC(=O)[C@H](CC(C)C)NC(=O)NCCC1=CCCCC1	> 44.5 µg/mL
O=Cc1c[nH]c2ccc(C(=O)c3ccccc3)cc12	4.3 µg/mL (≈ 17.3 µM)
CCOC(=O)c1cnc(C(F)(F)F)nc1Oc1ccccc1	11.7 µg/mL (≈ 37.5 µM)
Cc1cccc(C)c1NC(=O)CN(C)CC(=O)N1CC(=O)Nc2ccccc21	> 57.1 µg/mL
CC(=O)N1CCc2cc(S(=O)(=O)N3CCCCC3C)ccc21 (centres undefined)	9.4 µg/mL (≈ 29.2 µM)
